According to patent publication US7419968B1, “Methods for treating therapy-resistant tumors” (Celmed Oncology (USA), Inc., priority 1999, dated 2008):
Like-named read-outs stand apart in the source and are kept apart here.

Experiments:
rHuTS [1] = target: T1, rHuTS (Homo sapiens, UniProt P04818); assay: Inhibition of rHuTS reactions by Tomudex and 5-FdUMP; assay type: biochemical; conditions: for activity at 0.5 µM: read-out: rate as % of No Inhibitor
T1 construct: His tag (N); made in house; host or cells: E. coli BL21 (DE3), pET-28a(+)
T1 sequence (P04818 whole entry): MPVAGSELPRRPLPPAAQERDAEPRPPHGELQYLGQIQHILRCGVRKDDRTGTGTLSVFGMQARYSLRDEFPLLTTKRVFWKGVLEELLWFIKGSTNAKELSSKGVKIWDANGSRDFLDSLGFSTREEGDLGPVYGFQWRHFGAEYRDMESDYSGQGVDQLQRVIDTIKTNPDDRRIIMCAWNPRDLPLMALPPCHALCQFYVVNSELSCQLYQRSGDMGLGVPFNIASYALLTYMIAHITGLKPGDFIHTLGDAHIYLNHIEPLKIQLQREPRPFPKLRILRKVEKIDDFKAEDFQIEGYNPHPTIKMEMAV
Procedure: M. Enzyme Assays and Kinetic Measurements. Thymidylate synthase assays were done in 96 well Costar UV transparent plates in a reaction volume of 200 μl, consisting of 40 mM Tris pH 7.5, 25 mM MgCl2, 1 mM EDTA, 25 mM-mercaptoethanol, 125 µM dUMP, and 65 μM N5, N1O-methylene tetrahydrofolate indicated. Tetrahydrofolate stock solutions were prepared by dissolving tetrahydrofolic acid (Sigma) directly into 0.2 M Tris pH 7.5, 0.5 M-mercaptoethanol; stock solutions were stored at −80° C. N5, N10-methylene tetrahydrofolate was prepared by adding 12 μl of 3.8% formaldehyde to 1 ml of a 0.65 mM solution of tetrahydrofolate and incubating for 5 minutes at 37° C. N5, N10-methylene tetrahydrofolate was kept on ice and used within 2 hours of preparation.
Conversion of BVdUMP to fluorescent product(s) by thymidylate synthase was measured in 200 µl thymidylate synthase reactions containing 125 µM BVdUMP in 96 well Dynex Microfluor Black “U” bottom microtiter plates using an excitation wavelength of 340 nm and emission wavelength of 595 nm. Fluorescence was measured with a Tecan Spectrafluor Plus fluorimeter.
Inhibition of rHuTS reactions by Tomudex and 5-FdUMP. Thymidylate synthase reactions containing enzyme inhibitors or cofactor were incubated at 30° C. as described in Materials and Methods, and the initial rates of the enzyme reaction were determined by measuring the increase in relative fluorescence units at 340 nm excitation, 595 nm emission for the BVdUMP reactions, or increase in A340 for the dUMP reaction.

[2] = tested on: MCF7 (Breast) tumor cells; assay: alamarBlue growth inhibition, MCF7; assay type: cell-based; conditions: Homo sapiens
Procedure: (§1) J. Growth Inhibition Studies. Cells growing exponentially were transferred to 384-well flat bottom tissue culture plates. All cell types were plated at a density of 500 cells per well in 25 μL of complete medium (RPMI 1640+10% fetal bovine serum+antibiotics/antimycotics). After 24 hours (day 0), 25 μL of complete medium containing the experimental compounds over the dose range of 10^ñ3 to 10^ñ10 M were added in triplicate. […] 5 μL of the redox indicator, alamarBlue, was added to each well (10% v/v). After 4 hours incubation at 37° C., fluorescence was monitored at 535 nm excitation and 595 nm emission.
(§2) Concentration vs. relative fluorescence units (RFU) were plotted, and sigmoid curves were fit using the Hill equation.

[3] = tested on: TSL/HT1080 cells (TS Level 702%); assay: alamarBlue growth inhibition, HT1080 clone with TS level 702%; assay type: cell-based; conditions: Homo sapiens, HT-1080, TSL/HT1080 (second line)
Procedure: (§3) F. Cell lines and transfection. HT1080 cells were grown in PRMI1640 medium supplemented with 10% fetal calf serum, and transfected with GFP-TS expression vector. 48 hours after, transfection cells were tripsinized and replated in culture medium containing 750 μg/ml G418. After selection with G418 for two weeks, surviving cells were sorted based upon fluorescence expression. One clone with higher fluorescence expression (named as TSH/HT1080) and one clone with lower fluorescence expression (named as TSL/HT1080) were selected and expanded into cells lines. The stable HT1080 cells transfected with pEGFP-C3 were used as control.
(§4) G. Construction of GFP-TS expression vector. […]
(§5) J. Growth Inhibition Studies. […] After 4 hours incubation at 37° C., fluorescence was monitored at 535 nm excitation and 595 nm emission.
as §2
(§6) A cDNA encoding rHuTS was subcloned into ventor pEGFP-C3, in-frame with GFP. […] Individual cells were cloned based upon high or low fluorescence expression as described in Methods. *TS levels were determined by using Western blot analysis, the quantified expression levels were expressed as values relative to that of cell strain CCD18co.

[4] = tested on: normal and tumor cell types; assay: Tumor/normal cell screen, panel averages and therapeutic index; assay type: cell-based, human
Procedure: (§7) J. Growth Inhibition Studies. Cells growing exponentially were transferred to 384-well flat bottom tissue culture plates. All cell types were plated at a density of 500 cells per well in 25 μL of complete medium (RPMI 1640+10% fetal bovine serum+antibiotics/antimycotics). After 24 hours (day 0), 25 μL of complete medium containing the experimental compounds over the dose range of 10^ñ3 to 10^ñ10 M were added in triplicate. Drug exposure time was 120 hours (day 5), after which growth inhibition was assayed. 5 μL of the redox indicator, alamarBlue, was added to each well (10% v/v). After 4 hours incubation at 37° C., fluorescence was monitored at 535 nm excitation and 595 nm emission.
as §2
Assays were carried out as described in Methods, above. Therapeutic index is calculated as the ratio of the average IC50 for normal cells to the average IC50 for tumor cells. All assays were done at least three times.

[5] = tested on: MCF7 TDX Tomudex-resistant breast cancer cells; assay: alamarBlue growth inhibition, MCF7 TDX; assay type: cell-based; conditions: Homo sapiens
Procedure: as §7, §2
(§8) O. Reversal of Resistance. The origin and characteristics of the human breast cancer MCF7 TDX cell line have been previously described (Drake, et al. (1996) Biochem. Pharmcol. 51(10): 1349-1355). Briefly, MCF-7 breast cancer cells were selected in vitro for resistance to Tomudex by continuous exposure to stepwise increases in TDX concentrations up to 2.0 μM.

[6] = tested on: CCD18co normal colon epthelial cell; assay: Thymidine rescue, alamar blue; assay type: cell-based, human; conditions: for rescue by thymidine: 10 uM thymidine; for IC50: Homo sapiens, CCD-18Co
Text: An additional approach was taken to understanding whether NB1011 might interfere with cell growth primarily by inactivating TS. This approach is based upon thymidine rescue of TS-blocked cells. […] For this reason, they survive only by scavenger mechanisms. One of the important scavenger mechanisms is utilization of extracellular thymidine. Thymidine incorporated by target cells can be converted to dTMP, usually by thymidine kinase, and thus continue DNA synthesis. Other pathways for use of exogenous thymidine have also been described If an important mechanism for NB1011 activity is via inhibition of endogenous TS, then the cytotoxicity should be relieved when thymidine is added to the cell culture media. For this experiment, a number of tumor cell lines were screened for their sensitivity to Tomudex and 5FdUrd, and ability to be rescued from these agents via thymidine supplementation. […] Experiments were carried out as described by (Patterson, et al. (1998) Cancer Res. 58: 2737-2740) with or without 10 uM thymidine, except that the alamar blue assay (see Materials and Methods) was employed to determine cytotoxicity.

[7] = tested on: H630R10 5FU-resistant colon tumor cells; assay: alamarBlue growth inhibition, H630R10; assay type: cell-based, human
Procedure: as §1, §2

rHuTS [8] = target: T1, rHuTS; assay: Impact of folate inhibitors, cell-free rHuTS substrate utilization; assay type: biochemical; conditions: for remaining activity: MTX 140 μM, LV 140 μM or TDX 5 μM
Procedure: M. Enzyme Assays and Kinetic Measurements. […] Tetrahydrofolate stock solutions were prepared by dissolving tetrahydrofolic acid (Sigma) directly into 0.2 M Tris pH 7.5, 0.5 M-mercaptoethanol; stock solutions were stored at −80° C. […] N5, N10-methylene tetrahydrofolate was kept on ice and used within 2 hours of preparation.
Cell-free assays using rHuTS, the appropriate substrate and other components were combined as described in Methods. […] Utilization of substrate (either BVdUMP or THF) was employed as a measure of reaction rate. The numbers indicate remaining activity.

[9] = target: T2, recombinant human thymidylate synthase (rHuTS) (Homo sapiens, UniProt P04818); assay: Enzyme kinetics of rHuTS with dUMP and BVdUMP; assay type: biochemical
T2 construct: His tag (N); made in house; host or cells: E. coli BL21 (DE3), pET-28a(+)
T2 sequence (P04818 whole entry): as above
Procedure: L. Enzyme Preparation. Cloned human thymidylate synthase plasmid pBCHTS was subcloned into E. coli. BL21 (DE3)/pET-28a(+) (Novagen) using the NdeI ñSacI insertion site, in order to add an amino terminal His tag. […] M. Enzyme Assays and Kinetic Measurements. […] Tetrahydrofolate stock solutions were prepared by dissolving tetrahydrofolic acid (Sigma) directly into 0.2 M Tris pH 7.5, 0.5 M-mercaptoethanol; stock solutions were stored at -80° C. […] N5, N10-methylene tetrahydrofolate was kept on ice and used within 2 hours of preparation. […] The catalytic efficiency of the enzyme (Kcat/Km) was calculated from the kinetic constants Km and Vmax.

MCF7 TDX/1011 cells = assay: alamarBlue growth inhibition, MCF7 TDX/1011; assay type: cell-based; conditions: Homo sapiens
Procedure: as §7, §2, §8

[10] = tested on: TSL/HT1080 cells (GFP-TS, lower expression); assay: alamarBlue growth inhibition, TSL/HT1080; assay type: cell-based; conditions: Homo sapiens, HT-1080; TSL/HT1080, TS Level 409%
Procedure: as §3, §4, §5, §2, §6

C/HT1080 cells = assay: alamarBlue growth inhibition, C/HT1080 control; assay type: cell-based; conditions: Homo sapiens, HT-1080; C/HT1080, TS Level 100%
Procedure: as §3, §4, §5, §2, §6

[11] = BVdUMP − THF, inhibitor 500 nM, relative fluorescence units

For `O=c1[nH]c(=O)n([C@H]2C[C@H](O)[C@@H](COP(=O)(O)O)O2)cc1F` [5-FdUMP], the “initial rate of rHuTS reaction” value (rHuTS [1]; BVdUMP + THF, inhibitor 500 nM) was 44 ± 2 RFU/min, the “initial rate of rHuTS reaction” value (rHuTS [1]; [11]) was 93 ± 13 and the “initial rate of rHuTS reaction” value (rHuTS [1]; dUMP + THF, inhibitor 500 nM) was 290 ± 70 nmol/min.

In the case of `O=c1[nH]cc(F)c(=O)[nH]1` [5FU, 5-fluorouracil], the IC50 [2] is reported as 10 µM, the IC50 [3] is reported as 3.5 µM and the “more toxic to normal cells than to tumor cells” value ([4]; overall) is reported as 3 fold. The “Therapeutic index (N/T)” value ([4]; ratio of average IC50 normal cells to average IC50 tumor cells) was 0.30 and the IC50 [5] was 32 µM.

`O=c1[nH]c(=O)n([C@H]2C[C@H](O)[C@@H](CO)O2)cc1F` [5FUdR, 5-fluoro-2′-deoxyuridine] was tested, and the rescue by thymidine [6] was “greater than 590 fold” and the “more toxic to normal colon cells (CCD18co) than to 5FU-resistant H630R10 tumor cells” value [7] was “about 18 fold”.

`O=c1[nH]c(=O)n([C@H]2C[C@H](O)[C@@H](COP(=O)(O)O)O2)cc1/C=C/Br` [BVdUMP, (E)5-(2-Bromovinyl)-2′-deoxyuridine 5′-monophosphate] was tested, and the “substrate utilization rate relative to reaction with THF” value (rHuTS [8]; BVdUMP, w/o THF, Inhibitor None) was 138%, the “initial rate of rHuTS reaction” value (rHuTS [1]; BVdUMP + THF, No Inhibitor, 30° C.) was 109 ± 16 RFU/min and the “initial rate of rHuTS reaction” value (rHuTS [1]; BVdUMP − THF, No Inhibitor, relative fluorescence units) was 75 ± 11. The “type of inhibition with dUMP in rHuTS” value ([9]; 20 μM BVdUMP, dUMP 10 to 100 μM) was “competitive” and the “increase in catalytic efficiency of BVdUMP conversion, human enzyme vs L. casei enzyme” value ([9]; relative to endogenous substrate dUMP) was > 6.4 fold.

For `Nc1nc2c(c(=O)[nH]1)N(C=O)C(CNc1ccc(C(=O)N[C@@H](CCC(=O)O)C(=O)O)cc1)CN2` (stereo partly shown) [LV, 5-formyltetrahydrofolate], the remaining activity (rHuTS [8]; BVdUMP, w/o THF) was 97%, the remaining activity (rHuTS [8]; BVdUMP, with THF) was 17% and the remaining activity (rHuTS [8]; dUMP, with THF) was 77%.

`Cc1nc2ccc(CN(C)c3ccc(C(=O)N[C@@H](CCC(=O)O)C(=O)O)s3)cc2c(=O)[nH]1` [Tomudex] was tested, and the remaining activity (rHuTS [8]; BVdUMP, w/o THF) was 25%, the remaining activity (rHuTS [8]; BVdUMP, with THF) was 0% and the remaining activity (rHuTS [8]; dUMP, with THF) was 18%. For the same compound, the “initial rate of rHuTS reaction” value (rHuTS [1]; BVdUMP + THF, inhibitor 500 nM) was 67 ± 3 RFU/min, the activity at 0.5 µM (rHuTS [1]; BVdUMP + THF, inhibitor 500 nM) was 61% and the activity at 0.5 µM (rHuTS [1]; BVdUMP − THF, inhibitor 500 nM) was 45%. The “initial rate of rHuTS reaction” value (rHuTS [1]; [11]) was 34 ± 3, the “initial rate of rHuTS reaction” value (rHuTS [1]; dUMP + THF, inhibitor 500 nM) was 690 ± 40 nmol/min and the activity at 0.5 µM (rHuTS [1]; dUMP + THF, inhibitor 500 nM) was 46%. It also gave an IC50 (MCF7 TDX/1011 cells) of 0.041 µM, an IC50 [2] of 0.026 µM and an IC50 [3] of 153 µM. The rescue by thymidine [6] was 15 fold, the IC50 ([6]; with 10 uM thymidine) was 0.095 µM and the IC50 ([6]; without thymidine) was 0.0065 µM. For the same compound, the IC50 [10] was 24 µM, the IC50 [5] was > 10 µM and the IC50 (C/HT1080 cells) was 3.6 µM.

In the case of `O=c1ccn([C@H]2C[C@H](O)[C@@H](COP(=O)(O)O)O2)c(=O)[nH]1` [dUMP, Deoxguridine Monophosphate], the “initial rate of rHuTS reaction” value (rHuTS [1]; dUMP + THF, No Inhibitor, A340) is reported as 1500 ± 20 nmol/min.
